Experimental data as given in patent US9132140B2, “Boronic acid derivatives and therapeutic uses thereof” (Rempex Pharmaceuticals, Inc., priority 2013, dated 2015).

Legend:
[1] = biological target: P99/AmpC of ECL (Enterobacter cloacae, UniProt P05364); experiment: biochemical; settings: nitrocefin; read-out: Ki (P99/AmpC of ECL, NCF)
Experimental: Purified enzymes were mixed with various concentrations of inhibitors in reaction buffer and incubated for 10 min at room temperature. Nitrocefin was added and substrate cleavage profiles were recorded at 490 nm every 10 sec for 10 min.

[2] = tested on: KP1097 (IMP-1 SHV); format: cell-based, Klebsiella pneumoniae
Excerpt: (§1) Several strains simultaneously expressing both class A and class B carbapenemases, which were constructed using conjugation, were also included in the panel.

[3] = tested on: KPM1109 (NDM, KPC); format: cell-based, Klebsiella pneumoniae
Excerpt: as §1

[4] = tested on: KPM1346 (NDM-1 TEM SHV CTX-M-15 CMY); format: cell-based, Klebsiella pneumoniae
Excerpt: as §1

[5] = tested on: KP1098 (IMP-26 TEM SHV); format: cell-based, Klebsiella pneumoniae
Excerpt: as §1

[6] = tested on: KPM1111 (NDM, KPC); format: cell-based, Klebsiella pneumoniae
Excerpt: as §1

[7] = tested on: KPM1110 (NDM, KPC); format: cell-based, Klebsiella pneumoniae
Excerpt: as §1

[8] = tested on: KP1004 (KPC TEM SHV); format: cell-based, Klebsiella pneumoniae
Excerpt: as §1

[9] = tested on: KP1081 (NDM-1, TEM-1, SHV-11, CMY-6, CTX-M-15); format: cell-based, Klebsiella pneumoniae
Excerpt: as §1

[10] = tested on: KPM1345 (VIM-1 SHV); format: cell-based, Klebsiella pneumoniae
Excerpt: as §1

[11] = tested on: KP1064 (KPC TEM SHV); format: cell-based, Klebsiella pneumoniae
Excerpt: as §1

[12] = tested on: KP1084 (KPC-3, SHV-11, TEM-1); format: cell-based, Klebsiella pneumoniae
Excerpt: as §1

[13] = tested on: KPM1108 (NDM, KPC); format: cell-based, Klebsiella pneumoniae
Excerpt: as §1

[14] = tested on: KP1070 (KPC TEM SHV); format: cell-based, Klebsiella pneumoniae
Excerpt: as §1

[15] = tested on: KP1059 (VIM-1, SHV-11); format: cell-based, Klebsiella pneumoniae
Excerpt: as §1

[16] = tested on: KPM1344 (VIM-1); format: cell-based, Klebsiella pneumoniae
Excerpt: as §1

[17] = tested on: KPM1347 (NDM-1 SHV CTX-M-15); format: cell-based, Klebsiella pneumoniae
Excerpt: as §1

P99/AmpC of ECL, sequence (P05364 21-381): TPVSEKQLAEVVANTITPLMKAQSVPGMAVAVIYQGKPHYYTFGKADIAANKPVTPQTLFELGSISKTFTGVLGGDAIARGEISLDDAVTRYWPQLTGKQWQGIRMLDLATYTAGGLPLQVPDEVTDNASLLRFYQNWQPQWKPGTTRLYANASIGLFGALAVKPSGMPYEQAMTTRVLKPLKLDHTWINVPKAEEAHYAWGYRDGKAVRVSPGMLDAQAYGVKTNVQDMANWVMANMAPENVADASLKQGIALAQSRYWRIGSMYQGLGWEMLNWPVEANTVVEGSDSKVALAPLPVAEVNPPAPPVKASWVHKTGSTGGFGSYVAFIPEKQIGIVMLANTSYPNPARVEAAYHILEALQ

Compound: Nn1cnnc1S[C@H]1Cc2cccc(C(=O)O)c2OB1O [Compound 14, (R)-3-(4-amino-4H-1,2,4-triazol-3-ylthio)-2-hydroxy-3,4-dihydro-2H-benzo[e][1,2]oxaborinine-8-carboxylic acid]
- Ki [1]: < 0.1 µM
- Imipenem + 14 MIC [2]: X (key: X: MIC of less than 1 μg/mL; Y: MIC of 1 μg/mL to 10 μg/mL; Z: MIC of greater than 10 μg/mL)
- Meropenem + 14 MIC [2]: Y (key: X: MIC of less than 1 μg/mL; Y: MIC of 1 μg/mL to 10 μg/mL; Z: MIC of greater than 10 μg/mL)
- Imipenem + 14 MIC [3]: X (key: X: MIC of less than 1 μg/mL; Y: MIC of 1 μg/mL to 10 μg/mL; Z: MIC of greater than 10 μg/mL)
- Meropenem + 14 MIC [3]: Y (key: X: MIC of less than 1 μg/mL; Y: MIC of 1 μg/mL to 10 μg/mL; Z: MIC of greater than 10 μg/mL)
- Imipenem + 14 MIC [4]: Y (key: X: MIC of less than 1 μg/mL; Y: MIC of 1 μg/mL to 10 μg/mL; Z: MIC of greater than 10 μg/mL)
- Meropenem + 14 MIC [4]: Z (key: X: MIC of less than 1 μg/mL; Y: MIC of 1 μg/mL to 10 μg/mL; Z: MIC of greater than 10 μg/mL)
- Imipenem + 14 MIC [5]: Y (key: X: MIC of less than 1 μg/mL; Y: MIC of 1 μg/mL to 10 μg/mL; Z: MIC of greater than 10 μg/mL)
- Meropenem + 14 MIC [5]: Z (key: X: MIC of less than 1 μg/mL; Y: MIC of 1 μg/mL to 10 μg/mL; Z: MIC of greater than 10 μg/mL)
- Imipenem + 14 MIC [6]: X (key: X: MIC of less than 1 μg/mL; Y: MIC of 1 μg/mL to 10 μg/mL; Z: MIC of greater than 10 μg/mL)
- Meropenem + 14 MIC [6]: X (key: X: MIC of less than 1 μg/mL; Y: MIC of 1 μg/mL to 10 μg/mL; Z: MIC of greater than 10 μg/mL)
- Imipenem + 14 MIC [7]: X (key: X: MIC of less than 1 μg/mL; Y: MIC of 1 μg/mL to 10 μg/mL; Z: MIC of greater than 10 μg/mL)
- Meropenem + 14 MIC [7]: X (key: X: MIC of less than 1 μg/mL; Y: MIC of 1 μg/mL to 10 μg/mL; Z: MIC of greater than 10 μg/mL)
- Imipenem + 14 MIC [8]: X (key: X: MIC of less than 1 μg/mL; Y: MIC of 1 μg/mL to 10 μg/mL; Z: MIC of greater than 10 μg/mL)
- Meropenem + 14 MIC [8]: X (key: X: MIC of less than 1 μg/mL; Y: MIC of 1 μg/mL to 10 μg/mL; Z: MIC of greater than 10 μg/mL)
- Imipenem + 14 MIC [9]: X (key: X: MIC of less than 1 μg/mL; Y: MIC of 1 μg/mL to 10 μg/mL; Z: MIC of greater than 10 μg/mL)
- Meropenem + 14 MIC [9]: X (key: X: MIC of less than 1 μg/mL; Y: MIC of 1 μg/mL to 10 μg/mL; Z: MIC of greater than 10 μg/mL)
- Imipenem + 14 MIC [10]: X (key: X: MIC of less than 1 μg/mL; Y: MIC of 1 μg/mL to 10 μg/mL; Z: MIC of greater than 10 μg/mL)
- Meropenem + 14 MIC [10]: X (key: X: MIC of less than 1 μg/mL; Y: MIC of 1 μg/mL to 10 μg/mL; Z: MIC of greater than 10 μg/mL)
- Imipenem + 14 MIC [11]: X (key: X: MIC of less than 1 μg/mL; Y: MIC of 1 μg/mL to 10 μg/mL; Z: MIC of greater than 10 μg/mL)
- Meropenem + 14 MIC [11]: Y (key: X: MIC of less than 1 μg/mL; Y: MIC of 1 μg/mL to 10 μg/mL; Z: MIC of greater than 10 μg/mL)
- Imipenem + 14 MIC [12]: Y (key: X: MIC of less than 1 μg/mL; Y: MIC of 1 μg/mL to 10 μg/mL; Z: MIC of greater than 10 μg/mL)
- Meropenem + 14 MIC [12]: Y (key: X: MIC of less than 1 μg/mL; Y: MIC of 1 μg/mL to 10 μg/mL; Z: MIC of greater than 10 μg/mL)
- Imipenem + 14 MIC [13]: Y (key: X: MIC of less than 1 μg/mL; Y: MIC of 1 μg/mL to 10 μg/mL; Z: MIC of greater than 10 μg/mL)
- Meropenem + 14 MIC [13]: Z (key: X: MIC of less than 1 μg/mL; Y: MIC of 1 μg/mL to 10 μg/mL; Z: MIC of greater than 10 μg/mL)
- Imipenem + 14 MIC [14]: X (key: X: MIC of less than 1 μg/mL; Y: MIC of 1 μg/mL to 10 μg/mL; Z: MIC of greater than 10 μg/mL)
- Meropenem + 14 MIC [14]: X (key: X: MIC of less than 1 μg/mL; Y: MIC of 1 μg/mL to 10 μg/mL; Z: MIC of greater than 10 μg/mL)
- Imipenem + 14 MIC [15]: Y (key: X: MIC of less than 1 μg/mL; Y: MIC of 1 μg/mL to 10 μg/mL; Z: MIC of greater than 10 μg/mL)
- Meropenem + 14 MIC [15]: Y (key: X: MIC of less than 1 μg/mL; Y: MIC of 1 μg/mL to 10 μg/mL; Z: MIC of greater than 10 μg/mL)
- Imipenem + 14 MIC [16]: X (key: X: MIC of less than 1 μg/mL; Y: MIC of 1 μg/mL to 10 μg/mL; Z: MIC of greater than 10 μg/mL)
- Meropenem + 14 MIC [16]: Y (key: X: MIC of less than 1 μg/mL; Y: MIC of 1 μg/mL to 10 μg/mL; Z: MIC of greater than 10 μg/mL)
- Imipenem + 14 MIC [17]: X (key: X: MIC of less than 1 μg/mL; Y: MIC of 1 μg/mL to 10 μg/mL; Z: MIC of greater than 10 μg/mL)
- Meropenem + 14 MIC [17]: X (key: X: MIC of less than 1 μg/mL; Y: MIC of 1 μg/mL to 10 μg/mL; Z: MIC of greater than 10 μg/mL)
